The source of these data is patent US9458123B2, “Methods, pharmaceutical compositions, therapeutic systems, and compounds for treating B cell malignancies” (University of Rochester, priority 2012, dated 2016).

The target of one assay is T1, Ubc13 (Homo sapiens, UniProt P61088).
T1 construct: purchased Boston Biochem Inc E2-600 (Ubc13); E2-662 (Uev1A)
The assay can be described thus: In vitro Ubc13~Ub thioester conjugate formation. The assay is classed as biochemical. The settings on record: E1, Ubc13-Uev1A, ubiquitin, ATP. How it is done: Purified GST or GST-Ubc13 fusion proteins were incubated with the cell extract prepared from OCI-Ly10 cells with or without the presence of NSC697923 as indicated. The amounts of Uev1A protein associated with GST or GST-Ubc13 were analyzed by western blotting. The first lane was loaded with 8% of the input cell lysate. […] The assay was carried out as described in FIG. 4A, except that the loading buffer for SDS-PAGE gel contains no reducing agent, unless otherwise specified, and the reaction was analyzed by western blotting with a Ubc13-specific antibody. […] The assay was carried out as in FIG. 5B, except that UbcHSc, instead of Ubc13 and Uev1A, was used in the ubiquitination reaction and that a UbcHSc antibody was used for western blot analysis.
For detecting the E2-ubiquitin (Ubc13˜Ub or UbcH5c˜Ub) thioester conjugates, the reactions were carried out as described above without GST-TRAF6. The reactions were terminated with the SDS-sample buffer without a reducing agent unless specified. The products were analyzed by western blotting with an anti-Ubc13 or anti-UbcHSc antibody as indicated.

In the next assay the test system is OCI-Ly10 cells. The assay can be described thus: Cell cycle distribution, PI and BrdU double staining. The settings on record: short time (5 hour) treatment. The assay is classed as cell-based. On the procedure:
(§1) The indicated ABC DLBCL cells were seeded at 3×10^5 cells/ml in 6-well plates and cultured in the presence of DMSO (0.2%, control) or various concentrations of NSC697923 for 24 hours. The live and dead cells were counted using the trypan blue exclusion assay. Shown are the means from three separate experiments. The average number of live cells in the control was set at 100. […] The levels of the indicated proteins were analyzed by western blotting. For caspase 3 detection, a mixture of an antibody for the uncleaved form and an antibody specific for the cleaved form was used. In FIG. 7C, OCI-Ly10 cells were treated as in FIG. 7A. The apoptotic cells (Annexin V positive cells) were measured by flow cytometry as described in Example 1 infra. A representative result from three independent experiments is depicted. […] BrdU was then added into the culture medium for 30 minutes before the cell-cycle distribution of the treated cells was analyzed as described in Example 1 infra. Shown are the averages from two independent experiments. […] BrdU was then added into the culture medium for 30 minutes before the cell-cycle distribution of the treated cells was analyzed as described in Example 1 infra. Shown are the averages from two independent experiments. […]

The subject of a further assay is OCI-Ly7 cells. The assay is described as above. The class given is cell-based. Conditions: short time (5 hour) treatment. On the procedure:
as §1

For assay [1], the system named is constitutive NF-κB signaling in OCI-Ly10 cells. The assay can be described thus: Constitutive NF-κB signaling in ABC DLBCL cells, western blot. Conditions: 3.5 hours. The assay is classed as cell-based. On the procedure:
OCI-Ly10 cells were treated with the indicated concentrations of NSC697923 for 3 hours. The levels of Ubc13˜Ub conjugate were analyzed by western blotting using a Ubc13-specific antibody as described in FIG. 4B. […] OCI-Ly10 cells were treated with DMSO (0.1%) or the indicated concentrations of NSC697923 for 3.5 hours. The levels of the indicated proteins were analyzed by western blotting with the respective antibodies.
Background: In western blotting, separated proteins are transferred to a membrane and probed.

For assay [2], the system named is IκBα phosphorylation by LPS in MEF cells. The assay can be described thus: IκBα phosphorylation after LPS, western blot. The assay is classed as cell-based, Mouse. Conditions: LPS 1.5 μg/ml. How it is done:
SUDHL-6, RAW264.7, and MEF cells were treated with NSC697923 or DMSO (control) for 1 hour before being stimulated with the PMA (100 ng/ml), RANKL (15 ng/ml), and LPS (1.5 μg/ml) for the indicated times. The levels of IκBα phosphorylation in the indicated samples were assessed by western blotting.
HEK293T cells were grown in DMEM supplemented with 10% fetal bovine serum (FBS). Diffuse large B cell lymphoma (DLBCL) cells SUDHL-6, OCI-Ly3, OCI-Ly7, OCLLy10, and HBL-1 were cultured as previously described (Davis et al., “Constitutive Nuclear Factor KappaB Activity is Required for Survival of Activated B Cell-Like Diffuse Large B Cell Lymphoma Cells,” J. Exp. Med. 194:1861-1874 (2001) and Kim et al., “Protein Kinase C-Associated Kinase is Required for NF-kappaB Signaling and Survival in Diffuse Large B-Cell Lymphoma Cells,” Blood 111:1644-1653 (2008), each of which is hereby incorporated by reference in its entirety). RAW264.7 cells were cultured in α-MEM medium supplemented with 10% FBS. Mouse embryo fibroblasts (“MEFs”) were prepared from day 14 embryos as previously described (Kamijo et al., “Tumor Suppression at the Mouse INK4a Locus Mediated by the Alternative Reading Frame Product p19ARF,” Cell 91:649-659 (1997), which is hereby incorporated by reference in its entirety). MEFs with less than four passages were used for the experiments described here. […]

Each structure is given as a SMILES string.

T1 sequence (P61088 whole entry): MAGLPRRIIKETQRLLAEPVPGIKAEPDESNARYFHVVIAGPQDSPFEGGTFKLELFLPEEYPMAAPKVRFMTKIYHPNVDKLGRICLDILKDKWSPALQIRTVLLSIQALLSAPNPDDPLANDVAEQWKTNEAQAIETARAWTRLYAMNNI
T1 sequence (Q13404 whole entry partner): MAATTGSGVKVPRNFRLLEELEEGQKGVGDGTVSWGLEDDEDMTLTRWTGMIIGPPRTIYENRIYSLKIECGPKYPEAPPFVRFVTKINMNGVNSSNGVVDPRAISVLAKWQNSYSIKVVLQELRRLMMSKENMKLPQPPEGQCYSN

Take `Cc1ccc(S(=O)(=O)c2ccc([N+](=O)[O-])o2)cc1` [NSC697923, 2-nitro-5-tosylfuran]: the “formation of Ubc13~Ub thioester conjugate” value at Ubc13 is reported as “inhibited formation of this thioester conjugate”. Further, the “cells in S phase” value in the assay with OCI-Ly10 cells is “marked decrease of cells in S phase”. Further, the “cells in S phase” value with OCI-Ly7 cells is reported as “marked decrease of cells in S phase”. Moreover, in assay [1], the “expression of Mc1-1” value is on record as “is inhibited”, the “expression of p100” value is listed as “is inhibited”, the “phosphorylation of IKK” value is on record as “inhibited phosphorylation” and the “phosphorylation of IκBα” value was “inhibited phosphorylation”. Also, the “IκBα phosphorylation by LPS” value in assay [2] is reported as “inhibited”.
